Experimental data: patent US20040062780A1, “Compositions and methods useful for the reduction of fine lines and wrinkles” (priority 2002, published 2004)

Tests used:
[1] = Dissolution of compounds in PEG-12 GDO lipid; type: physicochemical
Protocol: It will be appreciated that, while liposomes form spontaneously at the temperature of formation, cooling of liposomes after formation results in liposomes in trapped kinetic states. To minimize distortions in liposome structure upon such cooling, sterols such as cholesterol may be mixed with the lipid before liposome formation. It has been observed that cholesterol may be dissolved in PEG-12 GDO at up to about 10 percent by weight.
Tretinoin (all-trans retinoic acid), 6 mg, was dissolved in 500 μl of PEG-12 Glyceryl Dioleate. […] Distilled water, […], was added to the mixture and gently mixed. This yielded a concentration of 1 mg/ml. […] This solution can easily be incorporated into a cream, gel or lotion dosage form.

[2] = Spontaneous liposome formation of single lipids mixed with aqueous solution; type: physicochemical
Protocol: Lipids were tested at 2 weight percent in aqueous solution. Note that GDL means glycerol dilaurate, GDO means glycerol dioleate, GDM means glycerol dimyristate, GDP means glycerol dipalmitate, and GDS means glycerol distearate. For each lipid, the number after “PEG” indicates the numbers of C2H4O subunits in the PEG chain. The unsaturated dioleate lipids have similar packing parameters to the saturated dimyristate lipids.
Single lipids were tested for their ability to spontaneously form liposomes when mixed with an aqueous solution. PEG-12 GDO was obtained from Global 7 (New Jersey). All other lipids were synthesized for the experiment (see Table 1). For each experiment, water and lipid were separately equilibrated at the appropriate temperature. Two weight percent lipid was added to the aqueous solution, and the solution was analyzed for the presence of liposomes by optical light microscopy, cryo TEM, freeze fracture TEM, or hot stage microscopy.

CC1=C(/C=C/C(C)=C/C=C/C(C)=C/C(=O)O)C(C)(C)CCC1 [Tretinoin, all-trans retinoic acid, reference compound]
dissolution in PEG-12 Glyceryl Dioleate ([1]; 6 mg in 500 μl of PEG-12 Glyceryl Dioleate): Dissolution was complete

CC(C)CCC[C@@H](C)[C@H]1CC[C@H]2[C@@H]3CC=C4C[C@@H](O)CC[C@]4(C)[C@H]3CC[C@]12C [cholesterol]
amount dissolved in PEG-12 GDO ([1]; in PEG-12 GDO): up to 10 percent by weight

PEG-12 Glyceryl Dioleate [PEG-12 GDO]
Spontaneous Liposomes at 20° C. ([2]; 2 weight percent lipid in aqueous solution, 20° C.): YES
Spontaneous Liposomes at 37° C. ([2]; 2 weight percent lipid in aqueous solution, 37° C.): YES
Spontaneous Liposomes at 60° C. ([2]; 2 weight percent lipid in aqueous solution, 60° C.): YES
spontaneous liposome formation ([2]; all temperatures tested): spontaneously forms liposomes at all temperatures tested
